From US20240181068A1, “SELECTIVE NEUTRAL PH INHIBITOR OF CATHEPSIN B” (The Regents of the University of California, priority 2021, published 2024)
Each block holds one compound with its values, some of them ahead of it.

What was measured:
Type in all cases: biochemical
[1] = target: T1, cathepsin B in SHSY5Y human neuroblastoma cell homogenate (Homo sapiens, UniProt P07858); assay: Cathepsin B activity in neuroblastoma cell homogenates in presence of inhibitors; conditions: inhibitor 1 μM, Z-Arg-Arg-AMC substrate, pH 5.5
T1 construct: endogenous in cells; host or cells: SH-SY5Y human neuroblastoma cells
Method: Cathepsin B in human neuroblastoma cells treated with inhibitors. Neuroblastoma cells (human SHSY5Y) were grown in media consisting of 50% MEMalpha, 50% F12-K, 10% heat-inactivated FBS at 37° C. in an atmosphere of 95% air and 5% CO2. Firstly, cell homogenates were prepared by collection of cells in 0.32 M sucrose and freeze-thawing. Secondly, cells were incubated with Z-Arg-Lys-AOMK or CA-074Me for 6 hours at 37° C., and washed 3 times in phosphate-buffered saline and homogenates were prepared in 0.32 M sucrose with freeze-thawing. CA-074Me is a methyl ester form of the active CA-074 selective inhibitor of cathepsin B (70); CA-074Me penetrates the cell and is converted by intracellular esterases to CA-074.
Cathepsin B activity in the homogenates were monitored with Z-Arg-Arg-AMC substrate (60 μM) with buffer conditions of 40 mM citrate-phosphate, pH 5.5, 5 mM DTT, 1 mM EDTA, 100 mM NaCl, and 1.2% DMSO, followed by incubation at 37° C. for 30 minutes and reading of AMC fluorescence. CA-074-senstive activity was monitored to indicate cathepsin B activity, since CA-074 is a selective inhibitor of this enzyme (70). Protein content was measured in homogenates with the DC protein assay kit. Cathepsin B specific activity was calculated as nmol AMC/μg/min, and reported as the mean±SD (with analyses for statistical significance, p<0.05 by student's t-test).

cathepsin H = target: T2, cathepsin H (Homo sapiens, UniProt P09668); assay: Specificity of inhibitors: cathepsin H (Arg-AMC substrate); conditions: cathepsin H
T2 construct: purchased R&D Systems 75116-CY-010
Method: (§1) Specificity of inhibitors for other cysteine cathepsin proteases. The effects of Z-Arg-Lys-AOMK and Z-Glu-Lys-AOMK on cathepsin V, L, K, S, X, H and C activities were assessed. IC50 values were calculated at pH 4.6 and pH 7.2 conditions, consisting of 40 mM citrate phosphate, 1 mM EDTA, 100 mM NaCl, and 5 mM DTT. The inhibitor concentrations ranged from 16.38 μM to 256 nM with 2-fold serial dilutions. […] Cathepsin V (0.04 ng/μL), cathepsin L (0.03 ng/μL), cathepsin K (0.10 ng/μL), cathepsin S (0.20 ng/uL) were assayed with 40 μM Z-Phe-Arg-AMC. Cathepsin X (0.20 ng/uL), cathepsin C (0.51 ng/uL) and cathepsin H (0.1 ng/μL) were assayed with 40 μM of MCA-Arg-Pro-Pro-Gly-Phe-Ser-Ala-Phe-Lys(Dnp)OH (SEQ ID NO: 2), Gly-Arg-AMC, and Arg-AMC, respectively. Activation of pro-cathepsin H to cathepsin H was conducted by incubation of cathepsin H (4.4 ng/μL) with cathepsin L (1.1 ng/μL) at RT for 2 hrs in activation buffer (20 mM citrate phosphate pH 6.0, 100 mM NaCl, and 5 mM DTT). Cathepsin C (13.78 ng/μL) was activated by incubation with cathepsin L (3.4 ng/μL) at RT for one hr in activation buffer (20 mM citrate phosphate, pH 6.0, 100 mM NaCl, 5 mM DTT). […] For all assays containing peptide-AMC substrates the fluorescent microplate reader settings were the same as outlined above for cathepsin B. For the cathepsin X assay, the plate reader was set to excitation 320 nm, emission 400 nm, gain 105, top optics and read height 1 mm. To convert RFU/s to picomol/min, 10 μM to 0.005 μM (2-fold serial dilution) of MCA-Arg-Pro-Pro-Gly-Phe-Ser-Ala-Phe-Lys(Dnp)OH (SEQ ID NO: 2) was fully hydrolyzed with excess cathepsin X and a standard curve was generated using the total fluorescence values calculated at each concentration.

cathepsin C = target: T3, cathepsin C (Homo sapiens, UniProt P53634); assay: Specificity of inhibitors: cathepsin C (Gly-Arg-AMC substrate); conditions: pH 7.2, from IC50
T3 construct: purchased R&D Systems 1071-CY-010
Method: as §1

cathepsin L = target: T4, cathepsin L (Homo sapiens, UniProt P07711); assay: Specificity of inhibitors: cathepsin L (Z-Phe-Arg-AMC substrate); conditions: cathepsin L
T4 construct: purchased R&D Systems 952-CY-010
Method: as §1

cathepsin B [2] = target: T5, cathepsin B (Homo sapiens, UniProt P07858); assay: Irreversible mechanism of inhibitors (pre-incubation, dilution, activity); conditions: pH 4.6
T5 construct: purchased R&D Systems 953-CY-010
Method: Irreversible mechanism of inhibitors. The irreversible or reversible mechanism of cathepsin B inhibition was assessed for Z-Arg-Lys-AOMK and Z-Glu-Lys-AOMK inhibitors. At pH 7.2, cathepsin B was incubated with 190 nM Z-Arg-Lys-AOMK and 4.99 μM Z-Glu-Lys-AOMK for 15 min in pH 7.2 assay buffer and the assay was performed as described above for pH 4.6. Proteolytic activity was monitored for 2 hr. At pH 4.6, cathepsin B (activated, 3.7 ng/μL) was incubated with 4.24 μM Z-Arg-Lys-AOMK and 3.48 μM Z-Glu-Lys-AOMK for 15 min in 40 mM citrate phosphate pH 4.6, 1 mM EDTA, 100 mM NaCl, and 5 mM DTT; a vehicle control contained 2.5% DMSO. Each reaction was then diluted 100-fold in assay buffer such that the final assay composition was 0.04 ng/μL cathepsin B, 40 μM Z-Phe-Arg-AMC, and an inhibitor concentration of 1/10th the IC50 value.

cathepsin B [3] = target: T5, cathepsin B; assay: Cathepsin B inhibitor kinetic characterization, fluorogenic assay with Z-Phe-Arg-AMC; conditions: cathepsin B
Method: Inhibitor kinetic characterization using fluorogenic assays for cathepsin B activity. Kinetic analyses of IC50, K1, kobs, and kinact/K1 values for Z-Arg-Lys-AOMK and Z-Glu-Lys-AOMK inhibition of cathepsin B were conducted by fluorogenic proteolytic assays consisting of 40 μM Z-Phe-Arg-AMC, 40 mM citrate phosphate at pH 7.2 or pH 4.6, 1 mM EDTA, 100 mM NaCl, 5 mM DTT, and 0.01% Tween 20; assays were performed at room temperature (22-27° C.) in quadruplicate. Inhibitor and substrate were combined in the reaction well, and the assay was started upon addition of cathepsin B (0.04 ng/μL). The inhibitor concentration ranged from 5.5 μM to 1.1 nM (1.5-fold serial dilution). A vehicle control assay contained 2% DMSO instead of inhibitor. Enzyme velocity (RFU/sec) was measured during a […] incubation period as relative fluorescent units per sec (RFU/s), calculated using the highest slope recorded for 10 consecutive readings taken at 46 sec intervals (thus, activity is calculated over a total of 460 sec). Prism software was used to analyze enzyme activity data in kinetic studies. IC50 values were calculated (without preincubation of inhibitor and enzyme) as the concentration of inhibitor that reduced cathepsin B activity by 50%.
For determination of K1 and kinact/K1 kinetic inhibition constants, kobs constants were determined by plots of cathepsin B activity in time courses with different inhibitor concentrations by curve fitting slope data of RFU versus time into Y=Y0*e^(−kobs*^X), where Y0 is the activity for the control with no inhibitor condition, Y is the activity in the presence of inhibitor, X is time. K1 and kinact values were calculated from curve fitting the kobs values into the equation kobs=kinact*[I]/(K1+[I]), where [I] is inhibitor concentration, and K1 is the x-axis inhibitor concentration where y=kinact/2 and kinact is the maximum rate of inactivation at saturating inhibitor concentrations (93, 94). These kinetic analyses are for irreversible inhibitors, Z-Arg-Lys-AOMK and Z-Glu-Lys-AOMK of this study, that utilize Ki values, rather than Ki values used for reversible inhibitors (93).

cathepsin X = cathepsin X (Homo sapiens, UniProt Q9UBR2); assay: Specificity of inhibitors: cathepsin X (MCA peptide substrate); conditions: cathepsin X, pH 4.6
Method: as §1

cathepsin S = target: T6, cathepsin S (Homo sapiens, UniProt P25774); assay: Specificity of inhibitors: cathepsin S (Z-Phe-Arg-AMC substrate); conditions: cathepsin S
T6 construct: purchased R&D Systems 1183-CY-010
Method: as §1

cathepsin K = target: T7, cathepsin K (Homo sapiens, UniProt P43235); assay: Specificity of inhibitors: cathepsin K (Z-Phe-Arg-AMC substrate); conditions: cathepsin K
T7 construct: purchased Abcam ab157067
T7 sequence (P43235 115-329): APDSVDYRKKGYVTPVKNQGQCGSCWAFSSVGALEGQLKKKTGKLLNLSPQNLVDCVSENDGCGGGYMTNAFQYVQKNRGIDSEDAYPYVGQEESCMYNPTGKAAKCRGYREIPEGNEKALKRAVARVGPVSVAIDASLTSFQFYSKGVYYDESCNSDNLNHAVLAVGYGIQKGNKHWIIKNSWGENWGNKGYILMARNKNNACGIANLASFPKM
Method: as §1

cathepsin V = target: T8, cathepsin V (Homo sapiens, UniProt O60911); assay: Specificity of inhibitors: cathepsin V (Z-Phe-Arg-AMC substrate); conditions: cathepsin V
T8 construct: purchased R&D Systems 1080-CY-010
Method: as §1

T6 sequence (P25774 115-331): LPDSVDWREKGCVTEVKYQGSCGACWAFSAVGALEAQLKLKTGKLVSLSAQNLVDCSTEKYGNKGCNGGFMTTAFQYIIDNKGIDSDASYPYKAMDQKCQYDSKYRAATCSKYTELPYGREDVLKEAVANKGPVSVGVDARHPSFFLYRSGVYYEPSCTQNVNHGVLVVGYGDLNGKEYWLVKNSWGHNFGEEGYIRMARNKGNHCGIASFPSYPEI
T4 sequence (P07711 114-333): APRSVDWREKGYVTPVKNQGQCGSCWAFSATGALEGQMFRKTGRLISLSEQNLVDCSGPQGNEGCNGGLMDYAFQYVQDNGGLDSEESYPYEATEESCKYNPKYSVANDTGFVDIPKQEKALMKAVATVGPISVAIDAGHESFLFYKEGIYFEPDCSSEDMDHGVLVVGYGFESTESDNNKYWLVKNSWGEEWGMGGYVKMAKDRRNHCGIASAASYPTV
T8 sequence (O60911 114-334): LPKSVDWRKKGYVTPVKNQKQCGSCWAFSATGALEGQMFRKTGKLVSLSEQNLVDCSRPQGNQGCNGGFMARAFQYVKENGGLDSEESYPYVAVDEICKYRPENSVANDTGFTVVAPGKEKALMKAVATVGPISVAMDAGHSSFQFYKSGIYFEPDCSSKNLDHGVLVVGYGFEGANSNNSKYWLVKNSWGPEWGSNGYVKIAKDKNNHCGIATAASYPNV
T2 sequence (P09668 116-335 limits assumed, other chains not shown): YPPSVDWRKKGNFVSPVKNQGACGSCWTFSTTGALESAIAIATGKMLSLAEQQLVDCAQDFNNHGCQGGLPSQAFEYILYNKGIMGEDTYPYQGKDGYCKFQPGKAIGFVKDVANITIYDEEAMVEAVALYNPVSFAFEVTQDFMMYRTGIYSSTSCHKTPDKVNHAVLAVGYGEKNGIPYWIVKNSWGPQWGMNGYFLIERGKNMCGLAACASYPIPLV
Chain of cathepsin X (Q9UBR2 62-303): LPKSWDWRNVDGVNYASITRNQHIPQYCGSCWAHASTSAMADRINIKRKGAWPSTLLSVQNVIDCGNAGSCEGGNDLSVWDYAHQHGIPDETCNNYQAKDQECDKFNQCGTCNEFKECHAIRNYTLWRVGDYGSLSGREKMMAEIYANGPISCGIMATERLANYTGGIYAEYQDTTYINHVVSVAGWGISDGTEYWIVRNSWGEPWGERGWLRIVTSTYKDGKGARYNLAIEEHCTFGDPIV
T3 sequence (P53634 25-134 limits assumed): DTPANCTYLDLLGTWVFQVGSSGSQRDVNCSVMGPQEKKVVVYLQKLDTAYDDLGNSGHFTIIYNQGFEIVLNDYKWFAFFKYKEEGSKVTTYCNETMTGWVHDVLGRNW
T3 sequence (P53634 231-394 limits assumed): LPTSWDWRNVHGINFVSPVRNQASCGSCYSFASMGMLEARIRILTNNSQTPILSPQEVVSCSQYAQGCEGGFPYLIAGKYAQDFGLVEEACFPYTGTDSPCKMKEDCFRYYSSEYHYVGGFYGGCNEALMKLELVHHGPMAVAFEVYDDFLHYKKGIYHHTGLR
T3 sequence (P53634 395-463 limits assumed): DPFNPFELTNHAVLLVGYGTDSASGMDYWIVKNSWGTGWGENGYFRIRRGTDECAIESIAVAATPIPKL

Compound: CCCNC(=O)[C@H]1O[C@@H]1C(=O)N[C@H](C(=O)N1CCC[C@H]1C(=O)O)[C@@H](C)CC [CA-074, reference compound]
inhibition of proteolytic (cathepsin B) activity in cell lysate [1]: completely inhibited

IC50 (cathepsin H; pH 4.6): > 16 µM
IC50 (cathepsin H; pH 7.2): > 16 µM
fold more potent for cathepsin B than cathepsin C (cathepsin C): 38 fold
IC50 (cathepsin L; pH 4.6): > 16 µM
inhibition at 16 µM (cathepsin L; pH 4.6, 16,000 nM inhibitor): 23%
cathepsin B activity after pre-incubation and dilution of inhibitor (cathepsin B [2]): no cathepsin B activity
kinact/KI (cathepsin B [3]; pH 4.6): 2000 M⁻¹ s⁻¹
Ki (cathepsin B [3]; pH 4.6, irreversible inhibitor): 7.9 µM
IC50 (cathepsin B [3]; pH 4.6, without preincubation): 1.1 µM
kinact/KI (cathepsin B [3]; pH 7.2): 8200 M⁻¹ s⁻¹
Ki (cathepsin B [3]; pH 7.2, irreversible inhibitor): 2.3 µM
IC50 (cathepsin B [3]; pH 7.2, without preincubation): 0.32 µM
IC50 (cathepsin X): > 16 µM
IC50 (cathepsin S; pH 4.6): > 16 µM
inhibition at 16 µM (cathepsin S; pH 4.6, 16,000 nM inhibitor): 26%
IC50 (cathepsin S; pH 7.2): > 16 µM
inhibition at 16 µM (cathepsin S; pH 7.2, 16,000 nM inhibitor): 30%
IC50 (cathepsin K; pH 4.6): > 16 µM
inhibition at 16 µM (cathepsin K; pH 4.6, 16,000 nM inhibitor): 10%
IC50 (cathepsin K; pH 7.2): > 16 µM
IC50 (cathepsin V; pH 7.2): > 16 µM
inhibition at 16 µM (cathepsin V; pH 7.2, 16,000 nM inhibitor): 10%
Compound: Cc1cccc(C)c1C(=O)OCC(=O)C(CCCCN)NC(=O)C(CCC(=O)O)NC(=O)OCc1ccccc1 (stereo not drawn) [Z-Glu-Lys-AOMK]
